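All cell lines were grown in 96-well plates and treated with compound for 48 hours. TGI: total growth inhibition.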
Experiments:
Test in all cases: DTP human tumour cell line panel, 48 h
[1] = tested on: UO-31 renal
[2] = tested on: UACC-257 melanoma
[3] = tested on: OVCAR-5 ovarian
[4] = tested on: HCT-15 colon
[5] = tested on: SNB-75 CNS
[6] = tested on: COLO 205 colon
[7] = tested on: MDA-N
[8] = tested on: A549 NSCLC
[9] = tested on: SF-539 CNS
[10] = tested on: SF-295 CNS
[11] = tested on: SK-MEL-2 melanoma
[12] = tested on: SW-620 colon
[13] = tested on: SR leukemia
[14] = tested on: K-562 leukemia
[15] = tested on: NCI-H226 lung
[16] = tested on: SN12C renal
[17] = tested on: M14 melanoma
[18] = tested on: T-47D breast
[19] = tested on: MALME-3M melanoma
[20] = tested on: HCT-116 colon

Structure (SMILES)	TGI [1]	TGI [2]	TGI [3]	TGI [4]	TGI [5]	TGI [6]	TGI [7]	TGI [8]	TGI [9]	TGI [10]	TGI [11]	TGI [12]	TGI [13]	TGI [14]	TGI [15]	TGI [16]	TGI [17]	TGI [18]	TGI [19]	TGI [20]
CCn1c(SCC(=O)N/N=C/c2ccccc2)nc2ccccc2c1=O	> 100 µM	> 100 µM	> 100 µM	> 100 µM	54.5 µM	> 100 µM	> 29.3 µM	> 46.4 µM	38.4 µM	33.1 µM	> 46.4 µM	> 100 µM	5.34 µM	> 100 µM	67.6 µM	> 100 µM	> 100 µM	> 100 µM	> 94.6 µM	> 100 µM
Nc1nc2c(c(=O)[nH]1)C(c1ccccc1)CC(=O)N2 (stereo not given)	> 100 µM	> 100 µM	> 100 µM	> 100 µM	> 100 µM	> 100 µM	> 100 µM	> 100 µM	> 100 µM	> 100 µM	> 100 µM	> 100 µM	> 100 µM	> 100 µM	> 100 µM	> 100 µM	> 100 µM	> 100 µM	> 100 µM	> 100 µM
